Values of other authors, collected in patent EP2703009A1, “Combination treatments involving antibodies to human PCSK9” (SANOFI, priority 2012, dated 2014).

Tests used:
[1] = after oral administration; cited from earlier work
[2] = tested on: patients with genotype-confirmed hoFH; conditions: ezetimibe 10 mg/day added to the maximal dose of statins; cited from earlier work
[3] = in vivo; cited from earlier work
PCSK9 = conditions: stated as known for statins and ezetimibe; limited or no information on ezetimibe alone; cited from earlier work

Structure (SMILES)	half-life (elimination from plasma) [1]	total reduction of LDL-C levels [2]	Frequent adverse events reported [3]	PCSK9 expression (PCSK9)	Less frequently reported adverse events [3]
CC(C)(Oc1ccc(C(=O)c2ccc(Cl)cc2)cc1)C(=O)O [Fenofibric acid]	20 h	–	–	–	–
O=C(O)[C@H]1O[C@@H](Oc2ccc([C@@H]3[C@@H](CC[C@H](O)c4ccc(F)cc4)C(=O)N3c3ccc(F)cc3)cc2)[C@H](O)[C@@H](O)[C@@H]1O [ezetimibe-glucuronide]	approximately 22 hours	–	–	–	–
O=C1[C@H](CC[C@H](O)c2ccc(F)cc2)[C@@H](c2ccc(O)cc2)N1c1ccc(F)cc1 [ezetimibe]	–	27%	abdominal pain, diarrhea, flatulence, fatigue, increase ALT/AST, headache and myalgia	upregulated	–
CC(C)OC(=O)C(C)(C)Oc1ccc(C(=O)c2ccc(Cl)cc2)cc1 [fenofibrate]	–	–	abdominal pain, nausea, vomiting, diarrhea, flatulence, increase ALT/AST	–	pancreatitis, thromboembolism (pulmonary embolism, deep venous thrombosis), biliary lithiasis, rash, pruritus, urticaria, photosensitivity reaction, increase creatinine and increase urea
